Values quoted from earlier work in patent publication US20250049733A1, “PHARMACEUTICAL COMPOSITION FOR THE TREATMENT OF INFECTIOUS RESPIRATORY DISEASES CAUSED BY INFLUENZA AND SARS-COV-2, AMONG OTHERS” (ALPARIS, S.A. DE C.V., priority 2021, published 2025).
Converted amounts (≈) assume the structure as drawn.

How the values were obtained:
[1] = test system: Respiratory Syncytal Virus (RSV)
[2] = test system: tumor necrosis factor-alpha (TNF-α) and interleukin-6 (IL-6); settings: randomized controlled trials
rheumatoid arthritis = settings: 8 weeks of treatment with 1 g of curcumin daily; meta-analysis
[3] = in vivo

SMILES: COc1cc(/C=C/C(=O)CC(=O)/C=C/c2ccc(O)c(OC)c2)ccc1O [curcumin, (1E,6E)-1,7-bis(4-hydroxy-3-methoxyphenyl)-1,6-heptadiene-3,5-dione]
- IC50, antiviral action against SARS-CoV2 (SARS-CoV2 viruses): 7.9 µg/mL (≈ 21.4 µM)
- IC50, antiviral action against Respiratory Syncytal Virus (RSV) [1]: 10 µg/mL (≈ 27.1 µM)
- IC50, antiviral action against influenza (influenza): 0.17 µg/mL (≈ 0.461 µM)
- IC50, antiviral action against Hepatitis (Hepatitis): 1.68 µg/mL (≈ 4.56 µM)
- IC50, antiviral action against Herpes simplex virus (Herpes simplex virus): 11.05 µg/mL (≈ 30 µM)
- secretion of TNF-α and IL-6 [2]: significantly reduces
- symptoms associated with inflammation in rheumatoid arthritis (rheumatoid arthritis): can reduce symptoms associated with inflammation
- half-life [3]: about 8 hours
